# “Also recorded” adds a separate entry of the source. Read-outs that look alike come from different tables or passages of the source.
# Key:
# MMP-9 = biological target: T1, MMP-9 (Homo sapiens, UniProt P14780); assay: MMP-9 inhibition assay (fluorogenic peptide substrate); assay type: biochemical; settings: for inhibitory effect: in words
# T1 construct: purchased Sino Biological 10327-HNAH
# Summary of the method: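 Human proMMP-2 and proMMP-9 were activated with 1 mM APMA (37 °C, 2 h), then used at 6.5 nM (MMP-2) or 10 nM (MMP-9) in Tris/NaCl/CaCl2/Brij 35 buffer, pH 7.5. Enzyme was preincubated with compound 30 min at RT; 25 μM DNP-Pro-Leu-Gly-Met-Trp-Ser-Arg substrate was added and fluorescence (ex 280/em 360 nm) followed 30 min. IC50 from logistic fits of Vmax.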
# MMP-2 = biological target: T2, MMP-2 (Homo sapiens, UniProt P08253); assay: De novo T-DEL selection against MMP-2, NGS decoding; assay type: binding; settings: for MMP2 SL-C Enrichment Fold: enrichment fold of sub-library SL-C member; for MMP2 SL-C Enrichment Fold / MMP2 SL-C Count: MMP-2 selection, Figure 4a source data; for MMP2 SL-C Count: sequence count of sub-library SL-C member
# T2 construct: purchased Sino Biological 10082-HNAH
# T2 sequence (P08253 110-660): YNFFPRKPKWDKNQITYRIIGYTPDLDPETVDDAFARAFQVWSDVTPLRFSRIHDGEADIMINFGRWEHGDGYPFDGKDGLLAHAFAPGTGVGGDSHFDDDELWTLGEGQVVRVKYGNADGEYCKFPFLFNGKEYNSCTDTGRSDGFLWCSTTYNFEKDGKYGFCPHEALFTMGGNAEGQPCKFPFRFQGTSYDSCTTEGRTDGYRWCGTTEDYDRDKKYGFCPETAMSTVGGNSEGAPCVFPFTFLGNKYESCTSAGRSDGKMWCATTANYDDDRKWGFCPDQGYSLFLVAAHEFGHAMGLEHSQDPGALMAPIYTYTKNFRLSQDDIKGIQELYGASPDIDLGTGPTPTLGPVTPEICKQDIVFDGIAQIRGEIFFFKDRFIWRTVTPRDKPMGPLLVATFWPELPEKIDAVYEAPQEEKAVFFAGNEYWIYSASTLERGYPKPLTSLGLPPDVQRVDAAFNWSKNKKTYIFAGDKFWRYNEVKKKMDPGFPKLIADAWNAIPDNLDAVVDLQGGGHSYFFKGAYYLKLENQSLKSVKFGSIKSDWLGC
# Description: Matrix metalloproteinases (MMPs) are zinc-dependent endopeptidases capable of degrading and remodeling extracellular matrix components[46],[47]. They are attractive therapeutic targets as high expression levels were detected in various diseases, such as inflammatory diseases, and at different stages of cancers, including metastasis, invasion, and angiogenesis[47]–[53]. As shown in Supplementary Fig. 3c, we performed selections against the two gelatinases (human MMP-2 and human MMP-9) to identify binding fragments for later design and synthesis of small molecule inhibitors. After selection, the three sub-libraries were decoded, and the enrichment was calculated by dividing the post-selection fraction (count/total counts) by the pre-selection fraction (Fig. 4a and Supplementary Fig. 13).
# 4 µg of MMP-2/MMP-9 was dissolved in 100 µl of selection buffer containing 25 mM Tris-base, 10 mM CaCl2, 150 mM NaCl, 0.05% Tween 20, pH 7.5. 10 µl of 4-Aminophenylmercuric acetate (APMA) (100 mM) solution was added to the protein solution and incubated at 37 °C for 1 h. After activation, the solution was added on top of 40 µl pre-washed Ni-NTA resin and incubated for 30 min on a rotary shaker. The supernatant was discarded, and the resin was washed three times with the selection buffer.
# For each independent selection, three sub-libraries were mixed in the selection buffer with a final concentration of 40 nM of each sub-library in 100 µl. The mixture was heat denatured at 90 °C for 1 min and slowly cooled down to allow the formation of the trio-pharmacophore library. The dynamic dual-pharmacophore DEL was provided by DyNAbind GmbH (Merck, DYNA001).
# The assembled library was incubated with the protein-bound solid support for 2 h at RT on a rotary shaker. In parallel, selection on bare solid support served as the negative control to exclude promiscuous binders on the resin. After panning, the supernatant was discarded, and the resin was washed three times with 1 ml selection buffer. Finally, 100 µl of 50 mM Tris buffer, pH 7.4 was added to resuspend the resin and the resin was incubated at 95 °C for 5 min to denature the protein, release, and collect the bound library members.
# The eluted library members were subjected to sample preparation for NGS. NGS preparation was achieved by two-step PCR. First, the individual selection was indexed using primers containing unique sequences corresponding to each selection. The amplified product was purified from 2% agarose gel. Second, the purified DNA from all selections were pooled in equal amount and subjected to the 2nd PCR step to attach sequences compatible with the NGS flow cell and the sequencing primers. NGS was performed by Novogene UK with Novaseq 6000. Raw data files (fastq files) obtained were decoded using a custom python script and excel. The sequence reads corresponding to each sample was retrieved by searching for the correct index unique to each selection. Then, the code region was extracted from each sequence and assigned to the corresponding identity. The count of each code in each selection sample was obtained by looping through the total reads and counting the occurrence of each code. The enrichment fold of each compound was calculated by first, dividing the count by the total count to get the abundance, second, the abundance after the selection was divided by the abundance of pre-selection to reflect the distribution change of the compound. Next, the enrichment fold was plotted against the count for each member of the library to give the scatter plots as in Fig. 4.
# [1] = read-out: Mean (MMP-9, Supplementary fig 16)
# [2] = read-out: Mean (MMP-9 dose-response, Supplementary fig 15)
# [3] = read-out: Mean (dose-response, Supplementary fig 17)
# [4] = read-out: Normalized activity (Mean)
# T1 sequence (P14780 107-707 limits assumed): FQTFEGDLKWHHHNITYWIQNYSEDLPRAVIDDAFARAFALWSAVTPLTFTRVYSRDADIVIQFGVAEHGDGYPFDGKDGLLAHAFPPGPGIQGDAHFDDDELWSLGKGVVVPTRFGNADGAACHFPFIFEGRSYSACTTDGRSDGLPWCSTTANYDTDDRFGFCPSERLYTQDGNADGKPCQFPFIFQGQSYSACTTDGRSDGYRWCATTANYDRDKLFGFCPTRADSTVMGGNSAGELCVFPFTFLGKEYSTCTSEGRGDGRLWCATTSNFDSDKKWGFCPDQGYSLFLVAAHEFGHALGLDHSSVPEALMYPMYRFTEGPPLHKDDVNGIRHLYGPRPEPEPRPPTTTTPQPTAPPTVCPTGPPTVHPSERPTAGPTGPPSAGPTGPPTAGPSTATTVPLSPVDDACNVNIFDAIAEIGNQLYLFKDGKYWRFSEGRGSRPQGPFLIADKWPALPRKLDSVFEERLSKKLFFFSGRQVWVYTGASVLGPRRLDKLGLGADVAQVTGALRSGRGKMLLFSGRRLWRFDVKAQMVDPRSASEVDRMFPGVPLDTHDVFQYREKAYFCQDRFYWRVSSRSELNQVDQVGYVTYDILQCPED
smiles,measurement,setting,value
Cn1c(O)nc2cc(C(=O)O)cnc21 [Compound 826],remaining activity at 0.12207 µM,"MMP-9; Figure 5b, fragment concentration 0.12207 µM, read-out: Normalized activity (Mean)",95.1%
same,remaining activity at 0.488281 µM,"MMP-9; Figure 5b, fragment concentration 0.488281 µM, read-out: Normalized activity (Mean)",93.3%
same,remaining activity at 1.95312 µM,"MMP-9; Figure 5b, fragment concentration 1.95312 µM, read-out: Normalized activity (Mean)",97.2%
same,remaining activity at 7.8125 µM,"MMP-9; Figure 5b, fragment concentration 7.8125 µM, read-out: Normalized activity (Mean)",99.6%
same,remaining activity at 31.25 µM,"MMP-9; Figure 5b, fragment concentration 31.25 µM, read-out: Normalized activity (Mean)",92%
same,remaining activity at 125 µM,"MMP-9; Figure 5b, fragment concentration 125 µM, read-out: Normalized activity (Mean)",94.2%
same,remaining activity at 500 µM,"MMP-9; Figure 5b, fragment concentration 500 µM, read-out: Normalized activity (Mean)",83%
same,remaining activity at 0.12 µM,"MMP-9; MMP-9, concentration 0.12 µM, read-out: Mean (MMP-9, Supplementary fig 16)",95.1%
same,remaining activity at 0.49 µM,"MMP-9; MMP-9, concentration 0.49 µM, read-out: Mean (MMP-9, Supplementary fig 16)",93.3%
same,remaining activity at 1.95 µM,"MMP-9; MMP-9, concentration 1.95 µM, read-out: Mean (MMP-9, Supplementary fig 16)",97.2%
same,remaining activity at 7.81 µM,"MMP-9; MMP-9, concentration 7.81 µM, read-out: Mean (MMP-9, Supplementary fig 16)",99.6%
same,remaining activity at 31.25 µM,"MMP-9; MMP-9, concentration 31.25 µM, read-out: Mean (MMP-9, Supplementary fig 16)",92%
same,remaining activity at 125 µM,"MMP-9; MMP-9, concentration 125.00 µM, read-out: Mean (MMP-9, Supplementary fig 16)",94.2%
same,remaining activity at 500 µM,"MMP-9; MMP-9, concentration 500.00 µM, read-out: Mean (MMP-9, Supplementary fig 16)",83%
same,remaining activity at 0.12 µM,"MMP-9; MMP-9, concentration 0.12 µM, read-out: Mean (MMP-9 dose-response, Supplementary fig 15)",95.1%
same,remaining activity at 0.12 µM,"MMP-9; MMP-9, concentration 0.12 µM, read-out: Mean (dose-response, Supplementary fig 17)",82.6%
same,remaining activity at 0.49 µM,"MMP-9; MMP-9, concentration 0.49 µM, read-out: Mean (MMP-9 dose-response, Supplementary fig 15)",93.3%
same,remaining activity at 0.49 µM,"MMP-9; MMP-9, concentration 0.49 µM, read-out: Mean (dose-response, Supplementary fig 17)",80.6%
same,remaining activity at 1.95 µM,"MMP-9; MMP-9, concentration 1.95 µM, read-out: Mean (MMP-9 dose-response, Supplementary fig 15)",97.2%
same,remaining activity at 1.95 µM,"MMP-9; MMP-9, concentration 1.95 µM, read-out: Mean (dose-response, Supplementary fig 17)",99.3%
same,remaining activity at 7.81 µM,"MMP-9; MMP-9, concentration 7.81 µM, read-out: Mean (MMP-9 dose-response, Supplementary fig 15)",99.6%
same,remaining activity at 7.81 µM,"MMP-9; MMP-9, concentration 7.81 µM, read-out: Mean (dose-response, Supplementary fig 17)",88.5%
same,remaining activity at 31.25 µM,"MMP-9; MMP-9, concentration 31.25 µM, read-out: Mean (MMP-9 dose-response, Supplementary fig 15)",92%
same,remaining activity at 31.25 µM,"MMP-9; MMP-9, concentration 31.25 µM, read-out: Mean (dose-response, Supplementary fig 17)",96.1%
same,remaining activity at 125 µM,"MMP-9; MMP-9, concentration 125.00 µM, read-out: Mean (MMP-9 dose-response, Supplementary fig 15)",94.2%
same,remaining activity at 125 µM,"MMP-9; MMP-9, concentration 125.00 µM, read-out: Mean (dose-response, Supplementary fig 17)",87.7%
same,remaining activity at 500 µM,"MMP-9; MMP-9, concentration 500.00 µM, read-out: Mean (MMP-9 dose-response, Supplementary fig 15)",83%
same,remaining activity at 500 µM,"MMP-9; MMP-9, concentration 500.00 µM, read-out: Mean (dose-response, Supplementary fig 17)",84%
same,inhibitory effect,MMP-9,No inhibitory effects could be measured; also recorded: did not exhibit meaningful activity
same,MMP2 SL-A Count,"MMP-2; NGS sequence count of sub-library SL-A building block, de novo T-DEL selection against MMP-2",1212
same,MMP2 SL-C Enrichment Fold,MMP-2,2.518
same,MMP2 SL-C Count,MMP-2,5893
same,MMP2 SL-A Enrichment Fold,"MMP-2; sub-library SL-A building block, de novo T-DEL selection against MMP-2",1.562
O=C(O)c1cncc(O)c1 [Compound 828],inhibitory effect,MMP-9,high µM range
same,IC50,"MMP-9; mean ± SE, n.d: not detected, Fig. 5e prints no unit, µM, read-out: IC50",271 ± 12.4 µM
same,remaining activity at 0.08 µM,MMP-9; [1],98.6%
same,remaining activity at 0.39 µM,MMP-9; [1],97.4%
same,remaining activity at 1.95 µM,MMP-9; [1],84.3%
same,remaining activity at 9.75 µM,MMP-9; [1],88.7%
same,remaining activity at 48.76 µM,MMP-9; [1],80.3%
same,remaining activity at 243.8 µM,MMP-9; [1],54.4%
same,remaining activity at 1219 µM,MMP-9; [1],0%
same,remaining activity at 0.08 µM,MMP-9; [2],98.6%
same,remaining activity at 0.39 µM,MMP-9; [2],97.4%
same,remaining activity at 1.95 µM,MMP-9; [2],84.3%
same,remaining activity at 9.75 µM,MMP-9; [2],88.7%
same,remaining activity at 48.76 µM,MMP-9; [2],80.3%
same,remaining activity at 243.8 µM,MMP-9; [2],54.4%
same,remaining activity at 1219 µM,MMP-9; [2],0%
same,remaining activity at 0.08 µM,MMP-9; [3],98.6%
same,remaining activity at 0.39 µM,MMP-9; [3],97.4%
same,remaining activity at 1.95 µM,MMP-9; [3],84.3%
same,remaining activity at 9.75 µM,MMP-9; [3],88.7%
same,remaining activity at 48.76 µM,MMP-9; [3],80.3%
same,remaining activity at 243.8 µM,MMP-9; [3],54.4%
same,remaining activity at 1219 µM,MMP-9; [3],0%
same,remaining activity at 0.078016 µM,MMP-9; [4],98.6%
same,remaining activity at 0.39008 µM,MMP-9; [4],97.4%
same,remaining activity at 1.9504 µM,MMP-9; [4],84.3%
same,remaining activity at 9.752 µM,MMP-9; [4],88.7%
same,remaining activity at 48.76 µM,MMP-9; [4],80.3%
same,remaining activity at 243.8 µM,MMP-9; [4],54.4%
same,remaining activity at 1219 µM,MMP-9; [4],0%
same,MMP2 SL-C Enrichment Fold,MMP-2,4.434
same,MMP2 SL-C Count,MMP-2,13025

# From PMC10023787, “Trio-pharmacophore DNA-encoded chemical library for simultaneous selection of fragments and linkers” (Nature Communications, 2023)
